Bounds are passed on as bounds.

What is called melting point is the temperature of the solid-liquid transition. On to `CC(C)N1CCN(c2ccnc3sc(C(N)=O)c(N)c23)CC1` [Example 41, 3-amino-4-(4-isopropylpiperazin-1-yl)thieno[2,3-b]pyridine-2-carboxamide], for which the melting point lay within 240 to 243 °C.

In turn, `NC(=O)c1sc2nccc(N3CCN(c4ccccc4)CC3)c2c1N` [Example 42, 3-amino-4-(4-phenylpiperazin-1-yl)thieno[2,3-b]pyridine-2-carboxamide] came in with a melting point of 250 to 252 °C.

In turn, `NC(=O)c1sc2nccc(N3CCN(Cc4ccccc4)CC3)c2c1N` [Example 43, 3-amino-4-(4-benzylpiperazin-1-yl)thieno[2,3-b]pyridine-2-carboxamide] displayed a melting point of 241 to 242 °C.

On to `NC(=O)c1sc2nccc(N3CCN(c4ncccn4)CC3)c2c1N` [Example 44, 3-amino-4-(4-pyrimidin-2-ylpiperazin-1-yl)thieno[2,3-b]pyridine-2-carboxamide], for which the melting point was 280 °C (dec.).

The compound `NC(=O)c1sc2nccc(N3CCN(c4ccccn4)CC3)c2c1N` [Example 45, 3-amino-4-(4-pyridin-2-ylpiperazin-1-yl)thieno[2,3-b]pyridine-2-carboxamide] had a melting point of 266 to 270 °C.

Turning to `Cc1ccc(N2CCN(c3ccnc4sc(C(N)=O)c(N)c34)CC2)cc1` [Example 46, 3-amino-4-[4-(4-methylphenyl)piperazin-1-yl]thieno[2,3-b]pyridine-2-carboxamide], the melting point was 270 °C (dec.).

For the compound `NC(=O)c1sc2nccc(N3CCN(c4ccc(F)cc4)CC3)c2c1N` [Example 47, 3-amino-4-[4-(4-fluorophenyl)piperazin-1-yl]thieno[2,3-b]pyridine-2-carboxamide], the melting point is 275 °C (dec.).

As to `NC(=O)c1sc2nccc(N3CCN(C(c4ccccc4)c4ccccc4)CC3)c2c1N` [Example 48, 3-amino-4-(4-benzhydrylpiperazin-1-yl)thieno[2,3-b]pyridine-2-carboxamide], the melting point lay within 225 to 233 °C.

Turning to `COc1ccc(N2CCN(c3ccnc4sc(C(N)=O)c(N)c34)CC2)cc1` [Example 49, 3-amino-4-[4-(4-methoxyphenyl)piperazin-1-yl]thieno[2,3-b]pyridine-2-carboxamide], the melting point was 275 °C (dec.).

The compound `NC(=O)c1sc2nccc(N3CCN(C(=O)c4ccccc4)CC3)c2c1N` [Example 51, 3-amino-4-(4-benzoylpiperazin-1-yl)thieno[2,3-b]pyridine-2-carboxamide] returned a melting point of over 300 °C.

As to `NC(=O)c1sc2nccc(N3CCN(c4ccc(Cl)cc4)CC3)c2c1N` [Example 52, 3-amino-4-[4-(4-chlorophenyl)piperazin-1-yl]thieno[2,3-b]pyridine-2-carboxamide], the melting point was 297 °C (dec.).

As to `COc1ccccc1N1CCN(c2ccnc3sc(C(N)=O)c(N)c23)CC1` [Example 53, 3-amino-4-[4-(2-methoxyphenyl)piperazin-1-yl]thieno[2,3-b]pyridine-2-carboxamide], the melting point was 294 °C (dec.).

For `NC(=O)c1sc2nccc(N3CCN(c4ccccc4Cl)CC3)c2c1N` [Example 54, 3-amino-4-[4-(2-chlorophenyl)piperazin-1-yl]thieno[2,3-b]pyridine-2-carboxamide], the melting point is 294 to 298 °C (dec.).

`CC(C)(C)OC(=O)N1CCCN(c2ccnc3sc(C(N)=O)c(N)c23)CC1` [Example 55, tert-butyl 4-[3-amino-2-(aminocarbonyl)thieno[2,3-b]pyridin-4-yl]-1,4-diazepane-1-carboxylate] had a melting point of 177 to 178 °C.

For the compound `NC(=O)c1sc2nccc(N3CCCN(Cc4ccccc4)CC3)c2c1N` [Example 56, 3-amino-4-(4-benzyl-1,4-diazepan-1-yl)thieno[2,3-b]pyridine-2-carboxamide], the melting point lay in the range of 194 to 195 °C.

Consider `NC(=O)c1sc2nccc(N3CCCN(c4ccc(Cl)cc4)CC3)c2c1N` [Example 60, 3-amino-4-[4-(4-chlorophenyl)-1,4-diazepan-1-yl]thieno[2,3-b]pyridine-2-carboxamide], for which the melting point was 92 to 96 °C.

The compound `NC(=O)c1sc2nccc(N3CCCN(c4ccccc4Cl)CC3)c2c1N` [Example 61, 3-amino-4-[4-(2-chlorophenyl)-1,4-diazepan-1-yl]thieno[2,3-b]pyridine-2-carboxamide] showed a melting point of 206 to 210 °C.

The compound `N#Cc1ccc(N2CCCN(c3ccnc4sc(C(N)=O)c(N)c34)CC2)cc1` [Example 62, 3-amino-4-[4-(4-cyanophenyl)-1,4-diazepan-1-yl]thieno[2,3-b]pyridine-2-carboxamide] displayed a melting point of 151 to 153 °C.

`NC(=O)c1sc2nccc(N3CCCN(c4ccc(C(F)(F)F)cc4)CC3)c2c1N` [Example 63, 3-amino-4-[4-(4-trifluoromethylphenyl)-1,4-diazepan-1-yl]thieno[2,3-b]pyridine-2-carboxamide]: the melting point fell in the range of 204 to 208 °C.

Compound `COc1ccccc1N1CCCN(c2ccnc3sc(C(N)=O)c(N)c23)CC1` [Example 67, 3-amino-4-[4-(2-methoxyphenyl)-1,4-diazepan-1-yl]thieno[2,3-b]pyridine-2-carboxamide] gave a melting point of 179 to 184 °C.

The compound `Cc1cc(N2CCCN(c3ccnc4sc(C(N)=O)c(N)c34)CC2)ccc1F` [Example 69, 3-amino-4-[4-(4-fluoro-3-methylphenyl)-1,4-diazepan-1-yl]thieno[2,3-b]pyridine-2-carboxamide] returned a melting point of 194 to 197 °C.

Take `Cc1ccccc1N1CCCN(c2ccnc3sc(C(N)=O)c(N)c23)CC1` [Example 70, 3-amino-4-[4-(2-toluyl)-1,4-diazepan-1-yl]thieno[2,3-b]pyridine-2-carboxamide]: the melting point was 206 to 209 °C (dec.).

For the compound `Cc1ccc(N2CCCN(c3ccnc4sc(C(N)=O)c(N)c34)CC2)cc1F` [Example 71, 3-amino-4-[4-(3-fluoro-4-methylphenyl)-1,4-diazepan-1-yl]thieno[2,3-b]pyridine-2-carboxamide], the melting point is 79 to 83 °C.

Compound `Cc1cc(N2CCN(c3ccccc3)CC2)c2c(N)c(C(N)=O)sc2n1` [Example 75, 3-amino-6-methyl-4-(4-phenylpiperazin-1-yl)thieno[2,3-b]pyridine-2-carboxamide] had a melting point of 247 to 250 °C.

Regarding `NC(=O)c1sc2nccc(N3CCCN(c4cccc(Cl)c4)CC3)c2c1N` [Example 78, 3-amino-4-[4-(3-chlorophenyl)-1,4-diazepan-1-yl]thieno[2,3-b]pyridine-2-carboxamide], the melting point lay in the range of 213 to 215 °C.

On to `NC(=O)c1sc2nccc(N3CCCN(c4ccc(OCc5ccccc5)cc4)CC3)c2c1N` [Example 79, 3-amino-4-{4-[4-(benzyloxy)phenyl]-1,4-diazepan-1-yl}thieno[2,3-b]pyridine-2-carboxamide], for which the melting point lay in the range of 211 to 213 °C.

In turn, `NC(=O)c1sc2nccc(N3CCCN(c4cccc([N+](=O)[O-])c4)CC3)c2c1N` [Example 80, 3-amino-4-[4-(3-nitrophenyl)-1,4-diazepan-1-yl]thieno[2,3-b]pyridine-2-carboxamide] had a melting point of 180 to 185 °C.

As to `NC(=O)c1sc2nccc(N3CCCN(c4ccc(F)c(Cl)c4)CC3)c2c1N` [Example 81, 3-amino-4-[4-(3-chloro-4-fluorophenyl)-1,4-diazepan-1-yl]thieno[2,3-b]pyridine-2-carboxamide], the melting point fell in the range of 181 to 184 °C.

The compound `NC(=O)c1sc2nccc(N3CCCN(c4ccc(Br)cc4)CC3)c2c1N` [Example 82, 3-amino-4-[4-(4-bromophenyl)-1,4-diazepan-1-yl]thieno[2,3-b]pyridine-2-carboxamide] registered a melting point of 170 to 173 °C.

Compound `NC(=O)c1sc2nccc(N3CCCN(c4cccc(C(F)(F)F)c4)CC3)c2c1N` [Example 86, 3-amino-4-{4-[3-(trifluoromethyl)phenyl]-1,4-diazepan-1-yl}thieno[2,3-b]pyridine-2-carboxamide] showed a melting point of 195 to 197 °C.

Regarding `NC(=O)c1sc2nccc(N3CCCN(c4ccc(OC(F)(F)F)cc4)CC3)c2c1N` [Example 87, 3-amino-4-{4-[4-(trifluoromethoxy)phenyl]-1,4-diazepan-1-yl}thieno[2,3-b]pyridine-2-carboxamide], the melting point is 163 to 165 °C.

`NC(=O)c1sc2nccc(N3CCCN(c4c(F)c(F)nc(F)c4F)CC3)c2c1N` [Example 88, 3-amino-4-[4-(2,3,5,6-tetrafluoropyridin-4-yl)-1,4-diazepan-1-yl]thieno[2,3-b]pyridine-2-carboxamide]: the melting point is 228 to 231 °C.

Turning to `NC(=O)c1sc2nccc(N3CCCN(c4ncnc5ccccc45)CC3)c2c1N` [Example 89, 3-amino-4-(4-quinazolin-4-yl-1,4-diazepan-1-yl)thieno[2,3-b]pyridine-2-carboxamide], the melting point fell in the range of 228 to 231 °C.

Turning to `Cc1ccc(N2CCCN(c3ccnc4sc(C(N)=O)c(N)c34)CC2)cc1[N+](=O)[O-]` [Example 90, 3-amino-4-[4-(4-methyl-3-nitrophenyl)-1,4-diazepan-1-yl]thieno[2,3-b]pyridine-2-carboxamide], the melting point fell in the range of 114 to 117 °C.

`CC(C)(C)c1ccc(N2CCCN(c3ccnc4sc(C(N)=O)c(N)c34)CC2)cc1` [Example 92, 3-amino-4-[4-(4-tert-butylphenyl)-1,4-diazepan-1-yl]thieno[2,3-b]pyridine-2-carboxamide]: the melting point is 231 to 232 °C.

Consider `Cc1cccc(N2CCN(c3ccnc4sc(C(N)=O)c(N)c34)CC2C)c1` (centres unmarked) [Example 95, 3-amino-4-[3-methyl-4-(3-methylphenyl)piperazin-1-yl]thieno[2,3-b]pyridine-2-carboxamide], for which the melting point was 215 to 217 °C.

Regarding `NC(=O)c1sc2nccc(N3CCCN(c4ccncc4)CC3)c2c1N` [Example 100, 3-amino-4-(4-pyridin-4-yl-1,4-diazepan-1-yl)thieno[2,3-b]pyridine-2-carboxamide], the melting point was 288 to 291 °C (dec.).

Compound `CC(=O)N1CCCN(c2ccnc3sc(C(N)=O)c(N)c23)CC1` [Example 103, 4-(4-acetyl-1,4-diazepan-1-yl)-3-aminothieno[2,3-b]pyridine-2-carboxamide] yielded a melting point of 214 to 215 °C.

The values are drawn from patent US20070219234A1, “Thienopyridine Derivatives” (priority 2004, published 2007).
